From PubChem BioAssay AID256 (DTP/NCI, 2004)
Where “and” joins values, the source holds several entries; their conditions need not be identical. Equal entries are not always repeated. Toxic doses and inconclusive results are not listed. Rule for the calls: active = survival T/C of 150% or more; inactive = T/C below 125% in these data.

Tested on: CD2F1 mice, L1210 leukemia ip, survival T/C
Test: NCI In Vivo Anticancer Drug Screen. Data for tumor model L1210 Leukemia (intraperitoneal) in CD2F1 (CDF1) mice
Conditions: higher = longer survival
Method in brief: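 Vehicle-treated tumor-bearing mice served as controls (C) for compound-treated mice (T). Reported figure is T divided by C.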

[1] = endpoint: mean survival time, dose: 100.0 mg/kg/injection, schedule: Q01DX009 (ip), vehicle: saline with Tween-80
[2] = endpoint: mean survival time, dose: 200.0 mg/kg/injection, schedule: Q01DX009 (ip), vehicle: saline with Tween-80
[3] = endpoint: mean survival time, dose: 400.0 mg/kg/injection, schedule: Q01DX009 (ip), vehicle: saline with Tween-80
[4] = endpoint: mean survival time, dose: 100.0 mg/kg/injection, schedule: Q04DX003 (ip), vehicle: Klucel (hydroxypropylcellulose) (HPC)
[5] = endpoint: mean survival time, dose: 200.0 mg/kg/injection, schedule: Q04DX003 (ip), vehicle: Klucel (hydroxypropylcellulose) (HPC)
[6] = endpoint: mean survival time, dose: 400.0 mg/kg/injection, schedule: Q04DX003 (ip), vehicle: Klucel (hydroxypropylcellulose) (HPC)
[7] = endpoint: mean survival time, dose: 100.0 mg/kg/injection, schedule: Q04DX003 (ip), vehicle: saline with Tween-80
[8] = endpoint: mean survival time, dose: 200.0 mg/kg/injection, schedule: Q04DX003 (ip), vehicle: saline with Tween-80
[9] = endpoint: mean survival time, dose: 400.0 mg/kg/injection, schedule: Q04DX003 (ip), vehicle: saline with Tween-80
[10] = endpoint: mean survival time, dose: 200.0 mg/kg/injection, schedule: Q01DX001 (ip), vehicle: saline
[11] = endpoint: mean survival time, dose: 400.0 mg/kg/injection, schedule: Q01DX001 (ip), vehicle: saline

Measured: T/C

CC[P+](C)(CC)c1cccc(OC(=O)NC)c1
inactive: endpoint: mean survival time, dose: 0.05 mg/kg/injection, schedule: Q01DX001 (ip), vehicle: saline 96 % of control | endpoint: mean survival time, dose: 0.1 mg/kg/injection, schedule: Q01DX001 (ip), vehicle: saline 102 % of control | endpoint: mean survival time, dose: 0.2 mg/kg/injection, schedule: Q01DX001 (ip), vehicle: saline 104 % of control

CC(=O)NC(C(=O)O)=C(C)C
inactive: [1] 96 % of control | [2] 105 % of control | [3] 96 % of control

O=C1OCCC1n1ccc(=O)[nH]c1=O (centres undefined)
inactive: [4] 102 % of control | [5] 96 % of control | [6] 102 % of control

Cn1cnc2ccc(Cl)cc21
inactive: endpoint: mean survival time, dose: 50.0 mg/kg/injection, schedule: Q01DX009 (ip), vehicle: saline with Tween-80 102 % of control | [1] 98 % of control | [2] 95 % of control

O=C(Nc1ccccc1)Oc1c(Cl)cc(Cl)c2ccccc12
inactive: endpoint: mean survival time, dose: 100.0 mg/kg/injection, schedule: Q04DX002 (ip), vehicle: saline with Tween-80 88 % of control | endpoint: mean survival time, dose: 200.0 mg/kg/injection, schedule: Q04DX002 (ip), vehicle: saline with Tween-80 88 % of control | endpoint: mean survival time, dose: 400.0 mg/kg/injection, schedule: Q04DX002 (ip), vehicle: saline with Tween-80 88 % of control

CCC[CH2][Sn]([CH2]CCC)[CH2]CCC.CCC[CH2][Sn]([CH2]CCC)[CH2]CCC
inactive: endpoint: mean survival time, dose: 12.5 mg/kg/injection, schedule: Q04DX003 (ip), vehicle: Klucel (hydroxypropylcellulose) (HPC) 93 % of control | endpoint: mean survival time, dose: 25.0 mg/kg/injection, schedule: Q04DX003 (ip), vehicle: saline 97 % of control | endpoint: mean survival time, dose: 50.0 mg/kg/injection, schedule: Q04DX003 (ip), vehicle: saline 97 % of control

CC(=O)Oc1ccccc1C(=O)O
inactive: endpoint: mean survival time, dose: 31.3 mg/kg/injection, schedule: Q01DX009 (ip), vehicle: saline sonified 106 % of control | endpoint: mean survival time, dose: 31.3 mg/kg/injection, schedule: Q01DX009 (ip), vehicle: saline with Tween-80 100 % of control | endpoint: mean survival time, dose: 50.0 mg/kg/injection, schedule: Q03HX024 (ip), vehicle: saline 97 % of control | endpoint: mean survival time, dose: 62.5 mg/kg/injection, schedule: Q01DX009 (ip), vehicle: saline sonified 101 % of control | endpoint: mean survival time, dose: 62.5 mg/kg/injection, schedule: Q01DX009 (ip), vehicle: saline with Tween-80 98 % of control | endpoint: mean survival time, dose: 100.0 mg/kg/injection, schedule: Q03HX024 (ip), vehicle: saline 97 % of control | endpoint: mean survival time, dose: 125.0 mg/kg/injection, schedule: Q01DX009 (ip), vehicle: saline sonified 98 % of control | endpoint: mean survival time, dose: 125.0 mg/kg/injection, schedule: Q01DX009 (ip), vehicle: saline with Tween-80 96 % of control and 100 % of control | endpoint: mean survival time, dose: 250.0 mg/kg/injection, schedule: Q01DX009 (ip), vehicle: saline with Tween-80 96 % of control | endpoint: mean survival time, dose: 500.0 mg/kg/injection, schedule: Q01DX001 (ip), vehicle: saline with Tween-80 104 % of control | endpoint: mean survival time, dose: 1000.0 mg/kg/injection, schedule: Q01DX001 (ip), vehicle: saline with Tween-80 104 % of control

CCC(O)C[As](=O)(O)c1ccc(Cl)cc1 (centres undefined)
inactive: endpoint: mean survival time, dose: 0.38 mg/kg/injection, schedule: Q01DX009 (ip), vehicle: water 98 % of control | endpoint: mean survival time, dose: 0.78 mg/kg/injection, schedule: Q01DX009 (ip), vehicle: water 98 % of control | endpoint: mean survival time, dose: 1.5 mg/kg/injection, schedule: Q01DX009 (ip), vehicle: water 94 % of control

OCC1OCOC2COCOC12 (centres undefined)
inactive: [7] 95 % of control | [8] 98 % of control | [9] 101 % of control

N=C(N)c1cc(Cl)c(OCc2ccccc2)c(Cl)c1
inactive: endpoint: mean survival time, dose: 25.0 mg/kg/injection, schedule: Q04DX003 (ip), vehicle: saline with Tween-80 97 % of control | endpoint: mean survival time, dose: 50.0 mg/kg/injection, schedule: Q04DX003 (ip), vehicle: saline with Tween-80 96 % of control

CC(=O)O/N=C(\C(c1ccccc1)c1ccccc1)C1c2ccccc2-c2ccccc21
inactive: endpoint: mean survival time, dose: 100.0 mg/kg/injection, schedule: Q01DX001 (ip), vehicle: saline with Tween-80 87 % of control | endpoint: mean survival time, dose: 200.0 mg/kg/injection, schedule: Q01DX001 (ip), vehicle: saline with Tween-80 87 % of control | endpoint: mean survival time, dose: 400.0 mg/kg/injection, schedule: Q01DX001 (ip), vehicle: saline with Tween-80 90 % of control

CC(=O)OCC1OC(Oc2ccccc2)C(OC(C)=O)C(OC(C)=O)C1OC(C)=O (centres undefined)
inactive: endpoint: median survival time, dose: 50.0 mg/kg/injection, schedule: Q04DX002 (ip), vehicle: saline with Tween-80 100 % of control | endpoint: median survival time, dose: 100.0 mg/kg/injection, schedule: Q04DX002 (ip), vehicle: saline with Tween-80 100 % of control | endpoint: median survival time, dose: 200.0 mg/kg/injection, schedule: Q04DX002 (ip), vehicle: saline with Tween-80 111 % of control | endpoint: median survival time, dose: 400.0 mg/kg/injection, schedule: Q04DX002 (ip), vehicle: saline with Tween-80 88 % of control

CCOC(=O)C(Cc1cccc2ccccc12)P(=O)(OCC)OCC (centres undefined)
inactive: endpoint: mean survival time, dose: 100.0 mg/kg/injection, schedule: Q01DX001 (ip), vehicle: saline 108 % of control | [10] 108 % of control | [11] 106 % of control

CCOC(=O)c1nc2c(n(O)c1=N)CCC/C2=N\O
inactive: [4] 95 % of control | [5] 102 % of control | [6] 91 % of control

Cc1ccc(C2CC3c4ccccc4C2C2CCCCN32)cc1 (centres undefined)
inactive: endpoint: mean survival time, dose: 1.56 mg/kg/injection, schedule: Q01DX009 (ip), vehicle: water 88 % of control and 86 % of control | endpoint: mean survival time, dose: 3.13 mg/kg/injection, schedule: Q01DX009 (ip), vehicle: water 86 % of control | endpoint: mean survival time, dose: 6.25 mg/kg/injection, schedule: Q01DX009 (ip), vehicle: water 88 % of control | endpoint: mean survival time, dose: 12.5 mg/kg/injection, schedule: Q01DX009 (ip), vehicle: water 88 % of control and 93 % of control | endpoint: mean survival time, dose: 25.0 mg/kg/injection, schedule: Q01DX009 (ip), vehicle: water 89 % of control and 102 % of control

CC(=O)Oc1ccc2c3c(ccc2c1)C1CCC(=O)C1(C)CC3 (centres undefined)
inactive: [7] 97 % of control | [8] 92 % of control | [9] 97 % of control

CS(=O)(=O)Nc1ccc(NS(C)(=O)=O)cc1
inactive: [7] 98 % of control | [8] 102 % of control | [9] 97 % of control

CNC(=O)Nc1nc2ccccc2[nH]1
inactive: endpoint: mean survival time, dose: 50.0 mg/kg/injection, schedule: Q04DX003 (ip), vehicle: Klucel (hydroxypropylcellulose) (HPC) 101 % of control | [4] 102 % of control | [5] 104 % of control | [6] 102 % of control

CCCNC(=O)Oc1cccc(NC(=O)CC)c1
inactive: [1] 96 % of control | [3] 89 % of control

O=C(Nc1ccc(-c2cc(-c3ccccc3)on2)cc1)c1ccccc1
inactive: [7] 90 % of control | [8] 88 % of control | [9] 88 % of control

CC(=O)OC1C=CC(OC(C)=O)O1 (centres undefined)
inactive: endpoint: mean survival time, dose: 0.75 mg/kg/injection, schedule: Q01DX009 (ip), vehicle: saline with Tween-80 103 % of control | endpoint: mean survival time, dose: 1.5 mg/kg/injection, schedule: Q01DX009 (ip), vehicle: saline with Tween-80 101 % of control | endpoint: mean survival time, dose: 1.88 mg/kg/injection, schedule: Q04DX003 (ip), vehicle: saline 96 % of control | endpoint: mean survival time, dose: 3.0 mg/kg/injection, schedule: Q01DX009 (ip), vehicle: saline with Tween-80 95 % of control | endpoint: mean survival time, dose: 3.75 mg/kg/injection, schedule: Q04DX003 (ip), vehicle: saline 98 % of control | endpoint: mean survival time, dose: 7.5 mg/kg/injection, schedule: Q01DX001 (ip), vehicle: saline 106 % of control | endpoint: mean survival time, dose: 7.5 mg/kg/injection, schedule: Q04DX003 (ip), vehicle: saline 102 % of control

O=C1CNC(c2ccccc2)C(c2ccccc2)N1 (centres undefined)
inactive: [7] 100 % of control | [8] 102 % of control | [9] 101 % of control

O=C(O)C(=O)O
inactive: [10] 92 % of control | [11] 97 % of control

O=C(Nc1ccc(C2=NCCN2)cc1)c1cc(Cl)cc(C(=O)Nc2ccc(C3=NCCN3)cc2)c1
inactive: endpoint: mean survival time, dose: 62.5 mg/kg/injection, schedule: Q01DX009 (ip), vehicle: saline 101 % of control and 104 % of control | endpoint: mean survival time, dose: 125.0 mg/kg/injection, schedule: Q01DX009 (ip), vehicle: saline 101 % of control and 103 % of control | endpoint: mean survival time, dose: 250.0 mg/kg/injection, schedule: Q01DX009 (ip), vehicle: saline 107 % of control and 108 % of control | endpoint: mean survival time, dose: 500.0 mg/kg/injection, schedule: Q01DX009 (ip), vehicle: saline 115 % of control and 110 % of control

C=CCS(=O)(=O)Cc1ccc([N+](=O)[O-])cc1
inactive: endpoint: mean survival time, dose: 100.0 mg/kg/injection, schedule: Q04DX002 (ip), vehicle: Klucel (hydroxypropylcellulose) (HPC) 105 % of control | endpoint: mean survival time, dose: 200.0 mg/kg/injection, schedule: Q04DX002 (ip), vehicle: Klucel (hydroxypropylcellulose) (HPC) 94 % of control | endpoint: mean survival time, dose: 400.0 mg/kg/injection, schedule: Q04DX002 (ip), vehicle: Klucel (hydroxypropylcellulose) (HPC) 105 % of control
